± gives the expanded uncertainty stated by the source.
Tests used:
[1] = 101.33 kPa, Liquid; for mass density: 298.1 K; for viscosity: 298.15 K
[2] = refractive index (Na D-line) (dimensionless); conditions: 298.1 K, 101.33 kPa, Liquid
[3] = Capillary tube (Ostwald / Ubbelohde) method

Row | SMILES | mass density ([1]; Vibrating tube method) | viscosity [1, 3] | refractive index ([2]; Standard Abbe refractometry) | mass density [1] | viscosity [1] | refractive index [2]
1 | Cc1ccccc1 [toluene] | 862.2 ± 0.16 kg/m3 | 0.577 ± 0.007 mPa·s | 1.49393 ± 0.00041 |  |  | 
2 | c1ccsc1 [thiophene] | 1058.59 ± 0.14 kg/m3 | 0.612 ± 0.007 mPa·s | 1.5253 ± 0.00041 |  |  | 
3 | CC(C)CC(C)(C)C [2,2,4-trimethylpentane] | 687.84 ± 0.23 kg/m3 |  | 1.38921 ± 0.00041 |  |  | 
4 | CCCCCCCCn1cc[n+](C)c1.O=S(=O)([N-]S(=O)(=O)C(F)(F)F)C(F)(F)F |  |  |  | 1319.78 ± 4.3 kg/m3 | 90.37 ± 4.8 mPa·s | 1.4327 ± 0.00089

Source: the NIST ThermoML archive (doi:10.1021/je800071q)
